Data from ChEMBL document CHEMBL3714747, “Imidazothiadiazole and imidazopyrazine derivatives as protease activated receptor 4 (par4) inhibitors for treating platelet aggregation” (2015).

Legend:
[1] = target: T1, Proteinase-activated receptor 4 (Homo sapiens, UniProt Q96RI0); test: Antagonist activity against human PAR4 expressed in HEK293 cells assessed as reduction in H-Ala-Phe(4-F)-Pro-Gly-Trp-Leu-Val-Lys-Asn-Gly-NH2-induced intracellular calcium mobilization incubated for 30 mins by FLIPR assay; type: functional, cell-based
T1 sequence (Q96RI0 whole entry): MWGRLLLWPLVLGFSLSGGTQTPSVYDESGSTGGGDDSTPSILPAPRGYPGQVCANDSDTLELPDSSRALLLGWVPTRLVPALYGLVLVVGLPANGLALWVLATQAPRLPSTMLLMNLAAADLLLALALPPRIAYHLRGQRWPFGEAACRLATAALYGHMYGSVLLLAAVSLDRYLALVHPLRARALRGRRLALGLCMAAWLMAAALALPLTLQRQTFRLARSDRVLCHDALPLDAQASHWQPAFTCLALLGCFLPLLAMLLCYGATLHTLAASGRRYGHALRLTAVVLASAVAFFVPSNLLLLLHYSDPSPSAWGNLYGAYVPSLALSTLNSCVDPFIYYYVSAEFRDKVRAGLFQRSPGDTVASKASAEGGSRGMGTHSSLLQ

Cynomolgus monkey [2] = test: Antithrombotic activity in cynomolgus monkey electrolytic injury-induced carotid artery thrombosis model assessed as reduction in thrmbosis-induced occlusion at 0.5 mg/kg, po dosed 1 to 2 hrs before test; type: functional; conditions: Macaca fascicularis
Cynomolgus monkey [3] = test: (§1) Antithrombotic activity in cynomolgus monkey electrolytic injury-induced carotid artery thrombosis model assessed as reduction in thrmbosis-induced occlusion at […], po dosed 1 to 2 hrs before test; type: functional; conditions: Macaca fascicularis
Cynomolgus monkey [4] = test: Antithrombotic activity in cynomolgus monkey electrolytic injury-induced carotid artery thrombosis model assessed as reduction in thrmbosis-induced occlusion at 0.02 mg/kg, po dosed 1 to 2 hrs before test; type: functional; conditions: Macaca fascicularis
Cynomolgus monkey [5] = test: Antithrombotic activity in cynomolgus monkey electrolytic injury-induced carotid artery thrombosis model assessed as reduction in thrmbosis-induced occlusion at 0.1 mg/kg, po dosed 1 to 2 hrs before test; type: functional; conditions: Macaca fascicularis
Cynomolgus monkey [6] = test: as §1; type: functional; conditions: Macaca fascicularis; remark: listed apart in the source

COc1cc(OCc2csc(N3CCN(c4cnccn4)CC3)n2)c2cc(-c3cn4nc(C)ccc4n3)oc2c1
EC50 [1]: 0.42 nM

COc1cc(OCc2csc(-c3ccccc3)n2)c2cc(-c3cn4nc(OC)sc4n3)oc2c1
inhibition in vivo at 0.5 mg/kg (Cynomolgus monkey [2]): 47%
inhibition in vivo at […] (Cynomolgus monkey [3]): 51%
inhibition in vivo at 0.02 mg/kg (Cynomolgus monkey [4]): 19%
inhibition in vivo at 0.1 mg/kg (Cynomolgus monkey [5]): 24%
inhibition in vivo at […] (Cynomolgus monkey [6]): 46%
